The target in assay [1] is T1, TYK2 (Homo sapiens, UniProt P29597).
T1 construct: purchased DiscoveRx (LeadHunter Discover Services, KINOMEscan)
T1 sequence (P29597 888-1187 limits assumed): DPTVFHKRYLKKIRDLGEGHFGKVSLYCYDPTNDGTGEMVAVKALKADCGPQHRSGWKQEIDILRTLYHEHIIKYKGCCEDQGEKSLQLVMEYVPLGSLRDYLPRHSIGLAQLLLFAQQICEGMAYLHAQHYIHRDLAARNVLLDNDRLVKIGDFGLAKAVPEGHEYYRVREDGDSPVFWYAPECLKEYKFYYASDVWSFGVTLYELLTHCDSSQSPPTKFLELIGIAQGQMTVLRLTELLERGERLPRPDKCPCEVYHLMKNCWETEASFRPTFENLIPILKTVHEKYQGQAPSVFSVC
The assay can be described thus: KINOMEscan enzyme binding assay (DiscoveRx), TYK2. To be noted: read-out: Dissociation Constant TYK2. How it is done: These assays may be conducted by DiscoveRx (formerly Ambit; San Diego, Calif.). The percentage inhibition produced by incubation with a test compound may be calculated relative to the non-inhibited control.

Assay [2] concerns CD3/IL2 stimulated PBMC cells. The assay can be described thus: IFNγ release from CD3/IL2 stimulated PBMC cells (assay (a)). Format: cell-based. The conditions noted are these: Homo sapiens, CD3/IL2 stimulation, 48 h, ELISA. How it is done:
(a) IFNγ Release from CD3/IL2 Stimulated PBMC Cells
PBMCs from healthy subjects are separated from whole blood using a density gradient (Lymphoprep, Axis-Shield Healthcare). Cells are added to a 96 well plate, and compound at the desired concentration added 2 hours prior to stimulation with a mixture of monoclonal antibody to CD3 (1 μg/ml, eBioscience) and human recombinant IL2 (10 ng/ml, Peprotech). After 48 hours incubation under normal tissue culture conditions, supernatants are collected and IFNγ release determined by Sandwich ELISA (Duo-set, R&D System). The IC50 is determined from the dose response curve.
A general note: In an ELISA, binding on a coated surface is turned into a signal by an enzyme label.

Molecules are shown by their SMILES.

One may read the IC50 as the point on the concentration scale where inhibition reaches its midpoint. Low values mean greater potency in that assay, high ones weaker potency in that assay.

On to `CCc1cc(O)c(F)cc1-c1ccc2c(-c3nc4c([nH]3)CCN(C(=O)c3cnc(N(C)CCN5CCCC5=O)cn3)C4)n[nH]c2c1` [Example 2(k), 1-(2-((5-(2-(6-(2-ethyl-5-fluoro-4-hydroxyphenyl)-1H-indazol-3-yl)-4,5,6,7-tetrahydro-1H-imidazo[4,5-c]pyridine-5-carbonyl)pyrazin-2-yl)(methyl)amino)ethyl)pyrrolidin-2-one], for which the Kd in assay [1] turned out to be 0.13 nM. The compound also had an IC50 in assay [2] of 9.9 nM.

For the origin of these results see patent US10851097B2, “4,5,6,7-tetrahydro-1H-imidazo[4,5-c]pyridine and 1,4,5,6,7,8-hexahydroimidazo[4,5-d]azepine derivatives as janus kinase inhibitors” (Topivert Pharma Limited, priority 2015, dated 2020).
